Data on 10 compounds can be found in patent publication US20030176456A1, “Methods for reducing alcohol cravings in chronic alcoholics” (priority 2001, published 2003).

For orientation: Ki means the dissociation constant of the complex between target and ligand, obtained from inhibition or displacement. The term IC50 denotes the concentration that inhibits the measured activity by half.

Data set [1] concerns the target T1, α1β3γ2 GABAA receptor (Homo sapiens, UniProt P14867+P18507).
T1 construct: expressed in transfected cells
The experiment in a line: Binding affinity at recombinant GABAA receptors (Ltk cells stably transfected). The note with it: recombinant αxβ3γ2; read-out: Ki α1.

The target of data set [2] is T2, α2β3γ2 GABAA receptor (Homo sapiens, UniProt P18507+P47869).
T2 construct: expressed in transfected cells
T2 sequence (P47869 29-451): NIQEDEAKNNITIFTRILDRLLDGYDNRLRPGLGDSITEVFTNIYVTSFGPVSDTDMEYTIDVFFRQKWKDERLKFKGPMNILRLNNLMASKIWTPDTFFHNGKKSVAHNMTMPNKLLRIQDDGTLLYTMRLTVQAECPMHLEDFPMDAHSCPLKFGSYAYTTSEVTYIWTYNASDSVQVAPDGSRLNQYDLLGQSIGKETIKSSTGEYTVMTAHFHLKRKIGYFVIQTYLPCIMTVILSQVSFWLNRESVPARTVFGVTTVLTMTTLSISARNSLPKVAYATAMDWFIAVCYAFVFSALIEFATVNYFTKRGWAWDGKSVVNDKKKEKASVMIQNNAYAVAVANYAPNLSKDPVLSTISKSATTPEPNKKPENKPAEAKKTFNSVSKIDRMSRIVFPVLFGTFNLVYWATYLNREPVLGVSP
T2 sequence (P28472 26-473 partner): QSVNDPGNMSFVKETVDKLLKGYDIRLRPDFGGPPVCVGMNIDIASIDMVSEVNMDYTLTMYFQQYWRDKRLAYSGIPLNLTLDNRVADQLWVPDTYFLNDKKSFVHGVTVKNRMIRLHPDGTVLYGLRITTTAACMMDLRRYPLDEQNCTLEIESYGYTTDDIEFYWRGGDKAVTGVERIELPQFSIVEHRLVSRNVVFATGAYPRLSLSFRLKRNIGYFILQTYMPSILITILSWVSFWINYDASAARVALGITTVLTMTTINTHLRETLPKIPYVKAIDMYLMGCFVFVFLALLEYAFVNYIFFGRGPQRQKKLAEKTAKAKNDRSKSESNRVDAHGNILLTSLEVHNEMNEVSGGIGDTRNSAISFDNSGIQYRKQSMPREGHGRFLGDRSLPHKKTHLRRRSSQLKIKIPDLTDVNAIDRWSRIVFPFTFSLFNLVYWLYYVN
T2 sequence (P18507 40-475): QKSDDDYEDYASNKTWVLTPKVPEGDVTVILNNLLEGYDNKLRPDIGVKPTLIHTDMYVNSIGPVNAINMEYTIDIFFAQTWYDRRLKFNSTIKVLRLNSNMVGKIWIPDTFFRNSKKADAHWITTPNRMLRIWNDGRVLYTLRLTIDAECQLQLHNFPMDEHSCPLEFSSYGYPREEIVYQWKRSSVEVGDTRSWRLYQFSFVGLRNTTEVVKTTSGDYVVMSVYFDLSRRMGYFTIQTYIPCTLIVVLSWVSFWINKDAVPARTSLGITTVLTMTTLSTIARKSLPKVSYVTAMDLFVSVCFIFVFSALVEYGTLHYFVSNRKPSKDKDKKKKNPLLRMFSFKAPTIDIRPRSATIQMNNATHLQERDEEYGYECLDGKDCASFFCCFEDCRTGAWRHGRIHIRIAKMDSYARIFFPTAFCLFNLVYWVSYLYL
The description is as above. The note with it: recombinant αxβ3γ2; read-out: Ki α2.

The target of data set [3] is T3, α5β3γ2 GABAA receptor (Homo sapiens, UniProt P18507+P31644).
T3 construct: expressed in transfected cells
T3 sequence (P31644 32-462): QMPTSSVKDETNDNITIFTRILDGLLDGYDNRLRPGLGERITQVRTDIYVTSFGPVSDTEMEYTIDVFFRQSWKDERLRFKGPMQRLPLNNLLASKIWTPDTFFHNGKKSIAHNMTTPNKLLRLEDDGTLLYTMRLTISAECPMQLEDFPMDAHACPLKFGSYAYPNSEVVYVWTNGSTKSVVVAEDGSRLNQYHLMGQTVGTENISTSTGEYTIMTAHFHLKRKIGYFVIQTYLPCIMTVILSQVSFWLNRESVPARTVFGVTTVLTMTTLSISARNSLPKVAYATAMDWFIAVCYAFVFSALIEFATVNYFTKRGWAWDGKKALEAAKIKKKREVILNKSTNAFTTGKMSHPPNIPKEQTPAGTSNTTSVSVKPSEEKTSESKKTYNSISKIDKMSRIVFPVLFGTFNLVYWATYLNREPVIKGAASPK
T3 sequence (P28472 26-473 partner): as the sequence (P28472 26-473 partner) above
T3 sequence (P18507 40-475): as the sequence (P18507 40-475) above
Described as above.

Data set [4] deals with T4, α6β3γ2 GABAA receptor (Homo sapiens, UniProt P18507+Q16445).
T4 construct: expressed in transfected cells
T4 sequence (Q16445 20-453): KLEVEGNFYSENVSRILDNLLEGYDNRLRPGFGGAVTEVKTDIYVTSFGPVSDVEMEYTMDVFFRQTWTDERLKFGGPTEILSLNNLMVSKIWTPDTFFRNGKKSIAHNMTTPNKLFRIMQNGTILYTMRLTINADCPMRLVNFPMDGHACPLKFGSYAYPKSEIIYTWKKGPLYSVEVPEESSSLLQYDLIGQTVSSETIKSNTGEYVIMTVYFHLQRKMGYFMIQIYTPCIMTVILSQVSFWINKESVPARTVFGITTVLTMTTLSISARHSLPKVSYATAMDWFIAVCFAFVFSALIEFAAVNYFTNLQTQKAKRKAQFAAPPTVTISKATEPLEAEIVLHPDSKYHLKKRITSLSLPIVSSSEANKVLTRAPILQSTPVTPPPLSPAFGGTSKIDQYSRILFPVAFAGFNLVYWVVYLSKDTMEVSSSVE
T4 sequence (P28472 26-473 partner): as the sequence (P28472 26-473 partner) above
T4 sequence (P18507 40-475): as the sequence (P18507 40-475) above
The description is as above.

Data set [5] deals with wild type BDZ receptors (cerebral cortical membranes). The experiment in a line: Radioligand displacement at cerebral cortical membranes. In kind it is binding. The note with it: read-out: Displacement of [3H] flunitrazepam in vitro, IC50; rat cerebral cortical membranes; mean of three or more experiments. The procedure:
[^3H] […] In brief, rats were sacrificed by decapitation, and the cerebral cortex removed. […] Tissue was resuspended in an equal volume of buffer and recentrifuged. This procedure was repeated a total of three times and the tissue resuspended in 50 volumes of buffer. Incubations (1 mL) consisted of tissue (0.3 mL), drug solution (0.1 mL), buffer (0.5 mL) and radioligand (0.1 mL). […] The IC50 values were estimated using Hill plots.
(Loss of bound radioactivity is the signal in a displacement assay; it reports binding, not function.)

Data set [6] addresses T5, α3β3γ2 GABAA receptor (Homo sapiens, UniProt P18507+P34903).
T5 construct: expressed in transfected cells
The experiment in a line: Binding affinity at recombinant GABAA receptors (Ltk cells stably transfected). The note with it: recombinant αxβ3γ2; read-out: Ki α3.

The test system of data set [7] is HAD-1 rats. In kind it is in vivo, rat. The note with it: i.p.; chlordiazepoxide 10 mg/kg, βCCt 15 mg/kg; 10 min open field. The procedure: (§1) Ambulatory count in the open field was recorded individually for 10 min in a plexiglas chamber (42 cm×42 cm 30 cm) using a Digiscan activity monitoring system (Acuscan Electronics, Columbus, Ohio, USA) (for details of the monitoring system see June et al., 1998d).
(§2) βCCt (15 mg/kg i.p.) and chlordiazepoxide (10 mg/kg i.p.) were administered 15 and 30 min, respectively, prior to the rats being placed in the open field. EtOH (1.25 g/kg) was given 5 min prior to placing the rats in the open field. When βCCt was given in combination with either chlordiazepoxide or EtOH, it was given 10 min prior to chlordiazepoxide and EtOH. As noted above, βCCt was administered in Tween-20 solution, while all other drugs were mixed in sterile saline. Animals were tested between 9 am-3 pm.
(§3) Ambulatory count in the open field was recorded individually for 10 min in a plexiglas chamber (42 cm×42 cm 30 cm) using a Digiscan activity monitoring system (Acuscan Electronics, Columbus, Ohio, USA) (for details of the monitoring system see June et al., 1998b).
(§4) βCCt (5-60 mg/kg i.p.) and chlordiazepoxide (2.5, 5, 10 mg/kg i.p.) were administered 15 and 30 min, respectively, prior to being placed in the plus maze or open field. EtOH (1.25 g/kg) was given 5 min prior to placing the rats in the open field. When βCCt was given in combination with either chlordiazepoxide or EtOH, it was given 10 min prior to chlordiazepoxide and EtOH. As noted above, βCCt was administered in Tween-20 solution, while all other drugs were mixed in sterile saline. Animals were tested between 9am-3 pm.

Data set [8] has as its system P rats. The class given is in vivo, rat. The note with it: i.p.; chlordiazepoxide 10 mg/kg, βCCt 15 mg/kg; 10 min open field. As to the method:
as §1, §2, §3, §4

The target of data set [9] is T1, α1β3γ2 GABAA receptor. The note with it: footnoted b (Schering Labs, unpublished) or c (McKernan et al., 2000); read-out: Ki α1; cited from earlier work.
The target of data set [10] is T2, α2β3γ2 GABAA receptor. The note with it: footnoted b or c; read-out: Ki α2; cited from earlier work.
The target of data set [11] is T5, α3β3γ2 GABAA receptor. The note with it: footnoted b or c; read-out: Ki α3; cited from earlier work.
Data set [12] addresses T3, α5β3γ2 GABAA receptor. The note with it: footnoted b or c; read-out: Ki α5; cited from earlier work.
The target of data set [13] is T4, α6β3γ2 GABAA receptor. The note with it: footnoted b or c; read-out: Ki α6; cited from earlier work.
The subject of data set [14] is P rats. Kind of data set: EtOH and sucrose responding after oral (gavage) administration. In kind it is in vivo, rat. The source says:
In this study we compared the suppressant effect of βCCt and 3-PBC with naltrexone, a currently used alcohol antagonist on the market. As it is shown in FIG. 29A-B, orally administered βCCt can reduce alcohol responding, however, the effects are not dose related. In addition, 24 hr after administration of βCCt, it continues to reduce alcohol responding with selected doses. […] The suppressant effects of naltrexone in reducing alcohol responding are also dissipated 24 hr after the administration. […] Unlike naltrexone, the suppressant effects observed by βCCt and 3-PBC are selective for alcohol, and not reinforcers in general.

For data set [15], the target named is T6, GABAA α1β3γ2 receptors (Rattus norvegicus, UniProt P18508+P62813).
T6 construct: expressed in transfected cells; host or cells: Xenopus laevis oocytes injected with cRNA
Kind of data set: Xenopus oocyte expression assay, modulation of GABA current. The class given is cell-based. The note with it: saturating 1-10 μM modulator with EC50 GABA (50 μM); mean±S.D.

Data set [16] has as its system GABAA α2β3γ2 receptors. The description is as above. The class given is cell-based, rat. The note with it: saturating 1-10 μM modulator with EC50 GABA (50 μM); mean±S.D.
Data set [17] has as its system GABAA α3β3γ2 receptors. The data set is described as above. The class given is cell-based, rat. The note with it: saturating 1-10 μM modulator with EC50 GABA (30 μM); mean±S.D.
For data set [18], the system named is GABAA α4β3γ2 receptors. The data set is described as above. In kind it is cell-based, rat.
Data set [19] concerns the target T7, GABAA α5β3γ2 receptors (Rattus norvegicus, UniProt P18508+P19969).
T7 construct: expressed in transfected cells; host or cells: Xenopus laevis oocytes injected with cRNA
The data set is described as above. The note with it: saturating 1-10 μM modulator with EC50 GABA (30 μM); mean±S.D. In kind it is cell-based.

Data set [20] deals with recombinant GABAA α1 through α5 (β3γ2) receptors. Kind of data set: Xenopus oocyte expression assay, result stated across several subtypes. In kind it is cell-based, rat. The note with it: saturating concentration; compared with 3-PBC.
Data set [21] has as its system alcohol-preferring (P) rats. The note with it: parenteral and oral administration (June et al., 1998b); cited from earlier work.
For data set [22], the system named is squirrel monkeys. The note with it: Rowlett et al., unpublished observation; cited from earlier work.
For data set [23] the following is noted: June et al., 1998e; cited from earlier work.
Where [24] appears, read: recombinant αxβ3γ2, read-out: Ki α5.
Where [25] appears, read: recombinant αxβ3γ2, read-out: Ki α6.

SMILES strings stand for the structures. Read-outs that look alike come from different tables or passages of the source.

T1 sequence (P14867 28-456): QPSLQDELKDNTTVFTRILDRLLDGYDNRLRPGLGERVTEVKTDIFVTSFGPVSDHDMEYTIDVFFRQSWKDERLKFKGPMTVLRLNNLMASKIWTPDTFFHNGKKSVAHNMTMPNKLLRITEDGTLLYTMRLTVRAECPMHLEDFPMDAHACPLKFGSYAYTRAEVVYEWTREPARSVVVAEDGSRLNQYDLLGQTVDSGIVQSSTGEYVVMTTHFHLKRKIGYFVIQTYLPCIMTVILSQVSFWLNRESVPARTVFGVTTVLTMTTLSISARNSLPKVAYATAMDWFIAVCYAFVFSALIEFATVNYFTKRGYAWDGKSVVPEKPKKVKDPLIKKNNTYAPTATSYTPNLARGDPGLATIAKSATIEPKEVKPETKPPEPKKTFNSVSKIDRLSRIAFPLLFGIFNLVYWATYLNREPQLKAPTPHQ
T1 sequence (P28472 26-473 partner): as the sequence (P28472 26-473 partner) above
T1 sequence (P18507 40-475): as the sequence (P18507 40-475) above
T5 sequence (P34903 29-492): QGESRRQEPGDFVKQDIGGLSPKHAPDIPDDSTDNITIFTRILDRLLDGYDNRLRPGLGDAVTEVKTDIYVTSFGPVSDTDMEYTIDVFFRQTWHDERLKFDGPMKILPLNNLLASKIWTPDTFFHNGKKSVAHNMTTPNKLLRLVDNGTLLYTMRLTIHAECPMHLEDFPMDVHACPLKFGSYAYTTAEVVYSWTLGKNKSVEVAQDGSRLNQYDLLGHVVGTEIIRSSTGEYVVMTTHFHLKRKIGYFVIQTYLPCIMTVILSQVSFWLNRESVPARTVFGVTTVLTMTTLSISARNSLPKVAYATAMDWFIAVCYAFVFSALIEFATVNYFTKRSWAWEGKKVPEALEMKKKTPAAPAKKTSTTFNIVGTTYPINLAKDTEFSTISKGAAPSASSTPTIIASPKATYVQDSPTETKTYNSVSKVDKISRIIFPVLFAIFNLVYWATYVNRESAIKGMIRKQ
T5 sequence (P28472 26-473 partner): as the sequence (P28472 26-473 partner) above
T5 sequence (P18507 40-475): as the sequence (P18507 40-475) above
T7 sequence (P19969 32-464 limits assumed): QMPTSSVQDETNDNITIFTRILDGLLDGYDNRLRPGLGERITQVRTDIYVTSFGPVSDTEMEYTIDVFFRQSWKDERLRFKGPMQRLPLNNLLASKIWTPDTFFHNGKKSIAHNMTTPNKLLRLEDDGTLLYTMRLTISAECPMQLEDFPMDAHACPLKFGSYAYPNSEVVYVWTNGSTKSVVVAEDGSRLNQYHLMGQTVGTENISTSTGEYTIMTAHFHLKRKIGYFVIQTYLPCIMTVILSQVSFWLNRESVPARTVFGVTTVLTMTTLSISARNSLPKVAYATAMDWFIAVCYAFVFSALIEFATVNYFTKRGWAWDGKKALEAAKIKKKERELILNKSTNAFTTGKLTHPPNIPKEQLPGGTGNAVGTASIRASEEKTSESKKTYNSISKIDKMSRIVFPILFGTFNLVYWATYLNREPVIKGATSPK
T7 sequence (P63079 26-473 partner): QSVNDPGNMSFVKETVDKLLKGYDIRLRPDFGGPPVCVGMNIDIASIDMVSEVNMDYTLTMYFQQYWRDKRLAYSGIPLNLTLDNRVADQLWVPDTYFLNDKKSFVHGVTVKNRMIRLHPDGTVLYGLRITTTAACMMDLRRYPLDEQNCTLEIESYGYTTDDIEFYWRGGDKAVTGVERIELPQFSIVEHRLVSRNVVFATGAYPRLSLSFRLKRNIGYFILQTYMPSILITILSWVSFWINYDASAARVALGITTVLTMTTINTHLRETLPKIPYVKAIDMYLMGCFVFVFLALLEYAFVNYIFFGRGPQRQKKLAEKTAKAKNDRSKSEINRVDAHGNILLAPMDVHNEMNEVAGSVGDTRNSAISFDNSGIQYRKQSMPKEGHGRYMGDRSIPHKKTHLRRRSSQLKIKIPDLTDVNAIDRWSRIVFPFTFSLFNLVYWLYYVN
T7 sequence (P18508 39-466): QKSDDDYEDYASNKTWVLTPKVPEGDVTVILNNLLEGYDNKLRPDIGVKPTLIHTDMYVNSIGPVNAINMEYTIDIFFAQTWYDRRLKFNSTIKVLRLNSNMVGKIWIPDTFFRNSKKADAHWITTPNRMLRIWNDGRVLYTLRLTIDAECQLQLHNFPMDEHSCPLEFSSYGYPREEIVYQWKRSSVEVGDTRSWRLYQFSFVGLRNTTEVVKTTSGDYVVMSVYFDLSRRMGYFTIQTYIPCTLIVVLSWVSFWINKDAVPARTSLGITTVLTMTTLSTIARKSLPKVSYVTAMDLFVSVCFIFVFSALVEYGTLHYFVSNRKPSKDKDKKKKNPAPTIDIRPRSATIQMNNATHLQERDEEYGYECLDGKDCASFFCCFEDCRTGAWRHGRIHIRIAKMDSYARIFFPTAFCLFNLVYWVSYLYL

Consider `CCOc1cc2c(cn1)[nH]c1ccccc12` [3-EBC], for which the Ki in [1] was 6.43 nM; in [2], 25.1 nM; in data set [3] (setting [24]), 868 nM; in [4] (setting [25]), greater than 1000 nM. Besides, in [5], the 50% inhibitory concentration (IC50) was 24 nM.
With `COc1cc2c(cn1)[nH]c1ccccc12` [3-methoxy], the IC50 in data set [5] was 124 nM.
Take `Cc1nnc2ccc(-c3cccc(C(F)(F)F)c3)nn12` [CL218, 872, reference compound]: the Ki is 57 nM in data set [1]; 1960 nM in [2]; 1160 nM in data set [6]; 561 nM in [3] (setting [24]); greater than 1000 nM in data set [4] (setting [25]).
Turning to `CNC1=Nc2ccc(Cl)cc2C(c2ccccc2)=[N+]([O-])C1` [Chlordiazepoxide, reference compound], the “locomotor activity, drug given alone” value in data set [7] was “profound and comparable reduction in locomotor activity”; in data set [8] it was “profound and comparable reduction in locomotor activity”.
With `Cn1ncnc1COc1nn2c(-c3cc(F)ccc3F)nnc2cc1C(C)(C)C` [L-838, 417], the Ki in data set [9] is 0.79 nM; in [10], 0.67 nM; in data set [11], 0.67 nM; in data set [12], 267 nM; in [13], 2.25 nM.
On to `O=C1CC[C@@]2(O)[C@H]3Cc4ccc(O)c5c4[C@@]2(CCN3CC2CC2)[C@H]1O5` [Naltrexone, naltrexone, reference compound], for which the responding for sucrose result in data set [14] (oral (gavage) 75 mg/kg) is “significantly reduces responding for sucrose”. Besides, in data set [14] (oral (gavage), βCCt 15 & 30 mg/kg, 3-PBC 30-75 mg/kg, naltrexone 30-75 mg/kg), the EtOH responding result was “significantly reduces EtOH responding”. In addition, in [14] (oral (gavage), βCCt 15 & 75 mg/kg), the “EtOH responding 24 hours after administration” value is given as “dissipated”.
As for `CCOC(=O)c1ncn2c1CN(C)C(=O)c1cc(F)ccc1-2` [Ro15-1788, flumazenil], the “% of GABA response, α1” value in [15] is reported as 99±5%. Moreover, the “% of GABA response, α2” value in [16] came out at 115±4%. Moreover, in data set [17], the “% of GABA response, α3” value came to 118±7%. Moreover, the “% of GABA response, α4” value in data set [18] (saturating 1-10 μM modulator with EC50 GABA (10 μM), mean±S.D.) is 132±6%. Besides, the “% of GABA response, α5” value in data set [19] is recorded as 96±6%. The “efficacy profile at the α1 through α5 receptors” value in data set [20] is “statistically similar to 3-PBC”. In addition, the alcohol-maintained responding entry in data set [21] is “did not alter EtOH-maintained responding”. For the same compound, the “activity in observational studies vs saline controls” value in [22] was “decreased overall activity”.
Take `CCOC(=O)c1ncc2[nH]c3cccc(OC(C)C)c3c2c1C` [ZK 93426]: the “% of GABA response, α1” value in [15] is 146+11%. Moreover, the “% of GABA response, α2” value in [16] is 140±13%. Besides, the “% of GABA response, α3” value in data set [17] was found to be 147±10%. Besides, in data set [18], the “% of GABA response, α4” value was determined as 137±8%. Further, the “% of GABA response, α5” value in [19] was roughly 96±6%. Besides, the Ki is 11 nM in data set [9]; 31 nM in [10]; 24 nM in [11]; 3 nM in data set [12]; 1600 nM in data set [13]. Moreover, the alcohol-maintained responding entry in [21] was “can selectively reduce alcohol-maintained responding”. The “blocking the sedative actions of alcohol” value in [23] is “capable of blocking”.
In the case of `Cc1ccc(-c2nc3ccc(C)cn3c2CC(=O)N(C)C)cc1` [Zolpidem, reference compound], the inhibition constant (Ki) in [3] and in data set [4] was greater than 1000 nM throughout.
For the compound `CCOC(=O)c1cc2c(cn1)[nH]c1ccccc12` [βCCE], the IC50 in data set [5] is 5 nM.
